Values quoted from earlier work as cited in patent US20230241051A1, “LONG-ACTING FORMULATIONS” (Janssen Pharmaceutica NV, priority 2020, published 2023).

Experiments:
Details in all cases: cited from earlier work
[1] = target: mycobacterial ATP synthase (Mycobacterium tuberculosis, UniProt P9WPS1+P9WPV7)
M. tuberculosis = tested on: M. tuberculosis
Mycobacterium leprae = tested on: Mycobacterium leprae

mycobacterial ATP synthase, sequence (P9WPS1 whole entry, looked up): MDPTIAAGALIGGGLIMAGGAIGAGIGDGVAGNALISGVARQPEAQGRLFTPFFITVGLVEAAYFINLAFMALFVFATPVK
mycobacterial ATP synthase, sequence (P9WPV7 whole entry, looked up): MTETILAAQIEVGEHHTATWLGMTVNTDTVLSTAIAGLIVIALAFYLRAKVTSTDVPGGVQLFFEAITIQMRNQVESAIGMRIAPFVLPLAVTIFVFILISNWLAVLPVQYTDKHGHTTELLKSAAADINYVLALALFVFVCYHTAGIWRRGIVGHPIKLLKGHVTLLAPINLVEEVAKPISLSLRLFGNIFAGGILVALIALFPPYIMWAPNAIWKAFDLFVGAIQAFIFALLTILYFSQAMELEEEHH

COc1nc2ccc(Br)cc2cc1[C@@H](c1ccccc1)[C@@](O)(CCN(C)C)c1cccc2ccccc12 [bedaquiline]
selectivity index for mycobacterial ATP synthase versus eukaryotic mitochondrial ATP synthase [1]: more than 20000
minimal dose killing 99% of bacilli (M. tuberculosis): 30 mg/kg/wk
minimal dose killing 99% of bacilli (Mycobacterium leprae; M. lepra): < 5.0 mg/kg/wk
activity against Mycobacterium leprae (Mycobacterium leprae; mice): bactericidal
